Source: US20200216439A1, “HETERO-1,5,6,7-TETRAHYDRO-4H-INDOL-4-ONES” (BAYER PHARMA AKTIENGESELLSCHAFT, priority 2015, published 2020)

These compounds were tested against T1, catalytic domain of human Bub1 (amino acids 704-1085) (Homo sapiens, UniProt O43683) (assay: Bub1 kinase assay (TR-FRET)). Conditions: TR-FRET; ATP 10 μM, peptide substrate 1 μM; 60 min at 22° C.; average or median if tested more than once; read-out: Inhibition of Bub1 kinase IC50.
T1 construct: catalytic domain of human Bub1 (amino acids 704-1085); His6 (N); made in house; host or cells: Hi5 insect cells
Type: biochemical
In short: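 Human Bub1 catalytic domain (704-1085, His6-tagged, Hi5-expressed, ~200 ng/mL) preincubated with compound 15 min at 22 °C, then reacted 60 min at 22 °C with 10 μM ATP and 1 μM biotinylated peptide substrate, pH 7.5. EDTA stop; TR-FRET 665/620 ratio; IC50 from 4-parameter fit, 11 concentrations in duplicate.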

T1 sequence (O43683 704-1085): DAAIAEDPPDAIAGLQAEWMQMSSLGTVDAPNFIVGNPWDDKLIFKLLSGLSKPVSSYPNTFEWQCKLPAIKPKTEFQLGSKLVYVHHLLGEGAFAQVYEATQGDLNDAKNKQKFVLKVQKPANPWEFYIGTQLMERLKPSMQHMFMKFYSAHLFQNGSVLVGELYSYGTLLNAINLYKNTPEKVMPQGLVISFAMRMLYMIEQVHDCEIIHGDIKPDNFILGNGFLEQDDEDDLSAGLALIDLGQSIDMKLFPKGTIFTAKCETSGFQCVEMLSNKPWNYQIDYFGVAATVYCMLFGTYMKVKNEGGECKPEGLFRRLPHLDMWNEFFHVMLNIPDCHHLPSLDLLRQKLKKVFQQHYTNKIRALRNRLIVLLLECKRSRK

Row | SMILES | IC50 [nM]
1 | O=C1CN(S(=O)(=O)c2cnc[nH]2)Cc2[nH]c(-c3ccnc(NC(=O)C4CC4(F)F)c3)c(Nc3ccccc3)c21 (racemic) [Example 164, (1RS)—N-{4-[3-Anilino-6-(1H-imidazol-5-ylsulfonyl)-4-oxo-4,5,6,7-tetrahydro-1H-pyrrolo[2,3-c]pyridin-2-yl]pyridin-2-yl}-2,2-difluorocyclopropanecarboxamide] | 6
2 | CC(=O)Nc1cc(-c2[nH]c3c(c2Nc2ccccc2)C(=O)CN(C(=O)c2ncco2)C3)ccn1 [Example 199, N-4-[6-(1,3-Oxazol-2-ylcarbonyl)-4-oxo-3-(phenylamino)-4,5,6,7-tetrahydro-1H-pyrrolo[2,3-c]pyridin-2-yl]pyridin-2-ylacetamide] | 20
3 | CC(C)(C)C(=O)N1CC(=O)c2c([nH]c(-c3ccnc(NC(=O)[C@@H]4C[C@@H]4F)c3)c2Nc2ccccc2)C1 [Example 213] | 2
4 | CNC(=O)N1CC(=O)c2c([nH]c(-c3ccncc3OCCOC)c2Nc2ccccc2)C1 [Example 249] | 5
5 | COc1cnccc1-c1[nH]c2c(c1Nc1ccccc1)C(=O)CN(S(=O)(=O)C(C)C)C2 [Example 109, 2-(3-Methoxypyridin-4-yl)-3-(phenylamino)-6-(propan-2-ylsulfonyl)-1,5,6,7-tetrahydro-4H-pyrrolo[2,3-c]pyridin-4-one] | 7
6 | CNC(=O)N1CC(=O)c2c([nH]c(-c3ccnc(NC(C)=O)c3)c2Nc2ccc(C)cc2)C1 [Example 320, 2-[2-(Acetylamino)pyridin-4-yl]-N-methyl-3-[(4-methylphenyl)amino]-4-oxo-1,4,5,7-tetrahydro-6H-pyrrolo[2,3-c]pyridine-6-carboxamide] | 178
7 | O=C1CN(C(=O)CCO)Cc2[nH]c(-c3ccncc3)c(Nc3ccccc3)c21 [Example 56, 6-(3-Hydroxypropanoyl)-3-(phenylamino)-2-(pyridin-4-yl)-1,5,6,7-tetrahydro-4H-pyrrolo[2,3-c]pyridin-4-one] | 5
8 | O=C1CN(S(=O)(=O)c2cnc[nH]2)Cc2[nH]c(-c3ccnc(NC(=O)C4(F)CC4)c3)c(Nc3ccccc3)c21 [Example 165, N-{4-[3-Anilino-6-(1H-imidazol-5-ylsulfonyl)-4-oxo-4,5,6,7-tetrahydro-1H-pyrrolo[2,3-c]pyridin-2-yl]pyridin-2-yl}-1-fluorocyclopropanecarboxamide] | 14
9 | C[S+]([O-])CCNC(=O)N1CC(=O)c2c([nH]c(-c3ccncc3)c2Nc2ccccc2)C1 (racemic) [Example 88, N-{2-[(RS)-Methylsulfinyl]ethyl}4-oxo-3-(phenylamino)-2-(pyridin-4-yl)-1,4,5,7-tetrahydro-6H-pyrrolo[2,3-c]pyridine-6-carboxamide] | 21
10 | CC(=O)Nc1cc(-c2[nH]c3c(c2Nc2ccccc2)C(=O)CN(C(=O)OCCF)C3)ccn1 [Example 184, 2-Fluoroethyl 2-(2-acetamidopyridin-4-yl)-3-anilino-4-oxo-1,4,5,7-tetrahydro-6H-pyrrolo[2,3-c]pyridine-6-carboxylate] | 8
11 | O=C1CN(C(=O)C2CC2)Cc2[nH]c(-c3ccncc3)c(Nc3ccccc3)c21 [Example 5, 6-(Cyclopropylcarbonyl)-3-(phenylamino)-2-(pyridin-4-yl)-1,5,6,7-tetrahydro-4H-pyrrolo[2,3-c]pyridin-4-one] | 5
12 | CN(C)C(=O)N1CC(=O)c2c([nH]c(-c3ccncc3OCC(F)F)c2Nc2ccccc2)C1 [Example 238, 2-[3-(2,2-Difluoroethoxy)pyridin-4-yl]-N,N-dimethyl-4-oxo-3-(phenylamino)-1,4,5,7-tetrahydro-6H-pyrrolo[2,3-c]pyridine-6-carboxamide] | 8
13 | CN(C)S(=O)(=O)N1CC(=O)c2c([nH]c(-c3ccnc(NC(=O)C4(F)CC4)c3)c2Nc2ccccc2)C1 [Example 273, N-4-[6-(Dimethylsulfamoyl)-4-oxo-3-(phenylamino)-4,5,6,7-tetrahydro-1H-pyrrolo[2,3-c]pyridin-2-yl]pyridin-2-yl-1-fluorocyclopropanecarboxamide] | 11
14 | COc1ccc(C(=O)Nc2cc(-c3[nH]c4c(c3Nc3ccccc3)C(=O)CN(C(=O)N3CCOCC3)C4)ccn2)cc1F [Example 291, 3-Fluoro-4-methoxy-N-4-[6-(morpholin-4-ylcarbonyl)-4-oxo-3-(phenylamino)-4,5,6,7-tetrahydro-1H-pyrrolo[2,3-c]pyridin-2-yl]pyridin-2-ylbenzamide] | 6
15 | CC(C)(O)C(=O)Nc1cc(-c2[nH]c3c(c2Nc2ccccc2)C(=O)COC3)ccn1 [Example 152, N-[4-(3-Anilino-4-oxo-1,4,5,7-tetrahydropyrano[3,4-b]pyrrol-2-yl)pyridin-2-yl]-2-hydroxy-2-methylpropanamide] | 437
16 | CN1CCN(C(=O)N2CC(=O)c3c([nH]c(-c4ccncc4OCC(F)(F)F)c3Nc3ccccc3)C2)CC1 [Example 246, 6-[(4-Methylpiperazin-1-yl)carbonyl]-3-(phenylamino)-2-[3-(2,2,2-trifluoroethoxy)pyridin-4-yl]-1,5,6,7-tetrahydro-4H-pyrrolo[2,3-c]pyridin-4-one] | 319
17 | CN1CCN(C(=O)N2CC(=O)c3c([nH]c(-c4ccncc4)c3Nc3ccccc3)C2)CC1 [Example 95, 6-[(4-Methylpiperazin-1-yl)carbonyl]-3-(phenylamino)-2-(pyridin-4-yl)-1,5,6,7-tetrahydro-4H-pyrrolo[2,3-c]pyridin-4-one] | 9
18 | Cn1cnc(S(=O)(=O)N2CC(=O)c3c([nH]c(-c4ccncc4)c3Nc3ccccc3)C2)c1 [Example 73, 6-[(1-Methyl-1H-imidazol-4-yl)sulfonyl]-3-(phenylamino)-2-(pyridin-4-yl)-1,5,6,7-tetrahydro-4H-pyrrolo[2,3-c]pyridin-4-one] | 8
19 | COCCOC(=O)N1CC(=O)c2c([nH]c(-c3ccncc3)c2Nc2ccccc2)C1 [Example 80, 2-Methoxyethyl 4-oxo-3-(phenylamino)-2-(pyridin-4-yl)-1,4,5,7-tetrahydro-6H-pyrrolo[2,3-c]pyridine-6-carboxylate] | 11
20 | CC(C)(C)OC(=O)N1CC(=O)c2c([nH]c(-c3ccncc3OCC(F)(F)F)c2Nc2ccccc2)C1 [Example 221, tert-Butyl 3-anilino-4-oxo-2-[3-(2,2,2-trifluoroethoxy)pyridin-4-yl]-1,4,5,7-tetrahydro-6H-pyrrolo[2,3-c]pyridine-6-carboxylate] | 104
21 | CC(=O)Nc1cc(-c2[nH]c3c(c2Nc2ccccc2)C(=O)CN(C(=O)CCF)C3)ccn1 [Example 211, N-4-[6-(3-Fluoropropanoyl)-4-oxo-3-(phenylamino)-4,5,6,7-tetrahydro-1H-pyrrolo[2,3-c]pyridin-2-yl]pyridin-2-ylacetamide] | 4
22 | COCCOc1cnccc1-c1[nH]c2c(c1Nc1ccccc1)C(=O)CN(S(=O)(=O)N(C)C)C2 [Example 280, 2-[3-(2-Methoxyethoxy)pyridin-4-yl]-N,N-dimethyl-4-oxo-3-(phenylamino)-1,4,5,7-tetrahydro-6H-pyrrolo[2,3-c]pyridine-6-sulfonamide] | 6
23 | O=C1CN(C(=O)c2cccnc2)Cc2[nH]c(-c3ccncc3)c(Nc3ccccc3)c21 [Example 62, 3-(phenylamino)-2-(pyridin-4-yl)-6-(pyridin-3-ylcarbonyl)-1,5,6,7-tetrahydro-4H-pyrrolo[2,3-c]pyridin-4-one] | 15
24 | COc1cc(C(=O)Nc2cc(-c3[nH]c4c(c3Nc3ccccc3)C(=O)CN(C(=O)N3C[C@@H](C)O[C@@H](C)C3)C4)ccn2)ccc1F [Example 261, N-4-[6-[(2R,6S)-2,6-Dimethylmorpholin-4-yl]carbonyl-4-oxo-3-(phenylamino)-4,5,6,7-tetrahydro-1H-pyrrolo[2,3-c]pyridin-2-yl]pyridin-2-yl-4-fluoro-3-methoxybenzamide] | 351
25 | O=C1CN(C(=O)OCCF)Cc2[nH]c(-c3ccncc3)c(Nc3ccccc3)c21 [Example 79, 2-Fluoroethyl 4-oxo-3-(phenylamino)-2-(pyridin-4-yl)-1,4,5,7-tetrahydro-6H-pyrrolo[2,3-c]pyridine-6-carboxylate] | 8
26 | O=C1CNCc2[nH]c(-c3ccnc(NC(=O)C4CC4(F)F)c3)c(Nc3ccccc3)c21 (racemic) [Example 137, (1RS)—N-[4-(3-Anilino-4-oxo-4,5,6,7-tetrahydro-1H-pyrrolo[2,3-c]pyridin-2-yl)pyridin-2-yl]-2,2-difluorocyclopropanecarboxamide] | 64
27 | CC(=O)Nc1cc(-c2[nH]c3c(c2Nc2ccccc2)C(=O)CN(C(=O)C(C)C)C3)ccn1 [Example 170, N-[4-(3-Anilino-6-isobutyryl-4-oxo-4,5,6,7-tetrahydro-1H-pyrrolo[2,3-c]pyridin-2-yl)pyridin-2-yl]acetamide] | 5
28 | CS(=O)(=O)N1CC(=O)c2c([nH]c(-c3ccnc(NC(=O)[C@H]4C[C@H]4F)c3)c2Nc2ccccc2)C1 (relative stereo) [Example 148, rel-(1R,2R)—N-{4-[3-Anilino-6-(methylsulfonyl)-4-oxo-4,5,6,7-tetrahydro-1H-pyrrolo[2,3-c]pyridin-2-yl]pyridin-2-yl}-2-fluorocyclopropanecarboxamide] | 4
29 | COc1ccc(C(=O)Nc2cc(-c3[nH]c4c(c3Nc3ccccc3)C(=O)CN(C(=O)OC(C)(C)C)C4)ccn2)cc1F [Example 283, tert-Butyl 2-2-[(3-fluoro-4-methoxybenzoyl)amino]pyridin-4-yl-4-oxo-3-(phenylamino)-1,4,5,7-tetrahydro-6H-pyrrolo[2,3-c]pyridine-6-carboxylate] | 38
30 | CC(C)(C)OC(=O)N1CC(=O)c2c([nH]c(-c3ccnc(N)c3)c2Nc2ccc(F)cc2)C1 [Example 296, tert-Butyl 2-(2-aminopyridin-4-yl)-3-[(4-fluorophenyl)amino]-4-oxo-1,4,5,7-tetrahydro-6H-pyrrolo[2,3-c]pyridine-6-carboxylate] | 172
